Results taken from patent publication US8563690B2, “Modulation of platelet aggregation” (The Board of Trustees of the University of Illinois, priority 2008, dated 2013).
Residues, ends and D or L forms follow the SMILES beside them. *: point of attachment. Myristoyl = CCCCCCCCCCCCCC(=O)*

Key:
Format in all cases: cell-based, human
platelets [1] = test system: platelets
Procedure: (§1) FIG. 2A-C: Quantitative analysis of the effect of myristoylated RGT peptide on platelet stable adhesion and spreading on immobilized fibrinogen. FIG. 2A: Platelets were added to microtiter wells precoated with fibrinogen and allowed to adhere for 30 min at 37° C. The phosphatase activity in supernatants (open columns) or in adherent platelets (close columns) was quantified by a PNPP assay. Data of three experiments (means and SD) were presented as the ratio of the phosphatase activity of platelet samples over blank. The asterisks indicate peptide concentration (* 62.5 μM; ** 125 μM; *** 250 μM). […] The phosphatase activity in supernatants (open columns) or in remaining platelet suspensions (close columns) was quantified by a PNPP assay. […] For quantitative analysis of the effect of the RGT peptide on platelet adhesion, we used a phosphatase assay. […] Nonadherent platelets were removed by three vigorous washes with phosphate-buffered saline (PBS), and adherent platelets were quantified by a phosphatase assay. In addition, to monitor peptide-dependent platelet lysis, the platelet phosphatase activity was separately measured in the supernatant of the platelets in suspension or following their adhesion to fibrinogen by mixing with PNPP substrate solution (100 mM sodium acetate, 1% Triton X-100, 3 mg/ml p-nitrophenyl phosphate) for 60 min at 37° C. […]

platelets [2] = experiment: Platelet stable adhesion on immobilized fibrinogen (phosphatase assay); details: 62.5-250 μM
Procedure: as §1

washed platelets = experiment: Plasma-free platelet-mediated fibrin clot retraction with washed platelets; details: 1 mM
Procedure: FIG. 3A-B: Effects of myr-RGT on fibrin clot retraction and platelet aggregation. FIG. 3A: Platelets were washed and resuspended in HEPES buffer containing 2 mg/ml of human fibrinogen (see “Experimental Procedures”) and incubated with different peptides or their vehicles as indicated. Fibrin clot formation was initiated by adding 1 U/ml thrombin. Clot retraction was monitored over time and photographs of the clots were taken at different time points (lower panel). The asterisks indicate peptide concentration (* 62.5 μM; ** 125 μM; *** 250 μM). The histograms of the clot size were generated from the photographs by calculating the ratio of the surface area of the retracted clot versus that of the initial clot. […]
Platelet clot retraction is an essential step in platelet thrombus consolidation and is initiated following platelet activation as a late consequence of integrin outside-in signaling. […] Clot retraction was monitored over a 90 min time period by taking photographs at indicated time points using a digital camera. Clot retraction was quantified on the photographs by measuring the clot surface area with the NIH Image 1.67e software, and the data were processed using Excel 4.0. Results were expressed as percentage of retraction (%=area t/area t0×100%).

CCCCCCCCCCCCCC(=O)N[C@@H](CCCNC(=N)N)C(=O)NCC(=O)N[C@H](C(=O)O)[C@@H](C)O [myr-RGT] (Myristoyl-Arg-Gly-Thr-OH; N-terminus and C-terminus assumed)
platelet lysis (platelets [1]): did not induce platelet lysis

CCCCCCCCCCCCCC(=O)O [myristic acid, tetradecanoic acid]
effect on platelet stable adhesion on immobilized fibrinogen (platelets [2]): no significant inhibitory effect

RGDS
inhibition of clot retraction (washed platelets): inhibit clot retraction
